The record followed here is US8461328B2, “Tricyclic heterocyclic compounds, compositions and methods of use thereof” (Genentech, Inc., priority 2010, dated 2013).

What all share (assay type): biochemical
One experiment has as its target T1, JAK3 (Homo sapiens, UniProt P52333).
T1 construct: made in house; host or cells: SF9 insect cells (baculovirus)
Nature of the experiment: JAK3 inhibition (Table 4). The note with it: read-out: JAK3 Ki.

The next experiment deals with T2, JAK1 (Homo sapiens, UniProt P23458).
T2 construct: made in house; host or cells: SF9 insect cells (baculovirus)
Nature of the experiment: JAK1 inhibition (Table 4). The note with it: read-out: JAK1 Ki.

Another experiment concerns the target T3, JAK2 (Homo sapiens, UniProt O60674).
T3 construct: made in house; host or cells: SF9 insect cells (baculovirus)
Nature of the experiment: JAK2 inhibition (Table 4). The settings on record: read-out: JAK2 Ki.

A further experiment concerns the target T4, TYK2 (Homo sapiens, UniProt P29597).
T4 construct: made in house; host or cells: SF9 insect cells (baculovirus)
T4 sequence (P29597 873-1187): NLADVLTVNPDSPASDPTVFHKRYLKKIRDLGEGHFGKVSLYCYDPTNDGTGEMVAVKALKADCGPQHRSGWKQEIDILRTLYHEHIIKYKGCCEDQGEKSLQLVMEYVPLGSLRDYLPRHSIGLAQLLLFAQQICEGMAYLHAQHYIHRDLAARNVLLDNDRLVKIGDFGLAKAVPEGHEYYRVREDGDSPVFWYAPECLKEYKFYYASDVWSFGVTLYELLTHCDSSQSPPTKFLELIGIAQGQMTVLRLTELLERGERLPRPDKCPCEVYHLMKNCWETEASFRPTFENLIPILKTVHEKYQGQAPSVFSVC
Nature of the experiment: TYK2 inhibition (Table 4).

T1 sequence (P52333 783-1124): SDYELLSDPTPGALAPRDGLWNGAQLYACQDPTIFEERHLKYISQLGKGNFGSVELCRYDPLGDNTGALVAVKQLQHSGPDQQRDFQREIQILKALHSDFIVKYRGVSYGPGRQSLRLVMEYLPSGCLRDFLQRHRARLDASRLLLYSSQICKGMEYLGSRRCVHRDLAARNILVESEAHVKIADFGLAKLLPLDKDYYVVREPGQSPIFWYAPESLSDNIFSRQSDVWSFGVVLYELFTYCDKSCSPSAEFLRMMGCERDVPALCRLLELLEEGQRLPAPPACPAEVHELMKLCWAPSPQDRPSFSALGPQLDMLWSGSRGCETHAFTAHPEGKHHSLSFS
T3 sequence (O60674 812-1132): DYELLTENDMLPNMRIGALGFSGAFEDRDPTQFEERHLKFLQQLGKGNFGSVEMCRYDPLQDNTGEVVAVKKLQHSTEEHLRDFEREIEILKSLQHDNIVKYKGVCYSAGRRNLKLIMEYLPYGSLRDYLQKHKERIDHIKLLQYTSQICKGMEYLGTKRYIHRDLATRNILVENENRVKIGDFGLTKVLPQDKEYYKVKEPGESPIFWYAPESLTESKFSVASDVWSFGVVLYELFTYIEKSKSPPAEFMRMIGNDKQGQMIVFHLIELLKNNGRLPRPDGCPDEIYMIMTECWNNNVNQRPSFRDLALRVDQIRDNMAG
T2 sequence (P23458 852-1154): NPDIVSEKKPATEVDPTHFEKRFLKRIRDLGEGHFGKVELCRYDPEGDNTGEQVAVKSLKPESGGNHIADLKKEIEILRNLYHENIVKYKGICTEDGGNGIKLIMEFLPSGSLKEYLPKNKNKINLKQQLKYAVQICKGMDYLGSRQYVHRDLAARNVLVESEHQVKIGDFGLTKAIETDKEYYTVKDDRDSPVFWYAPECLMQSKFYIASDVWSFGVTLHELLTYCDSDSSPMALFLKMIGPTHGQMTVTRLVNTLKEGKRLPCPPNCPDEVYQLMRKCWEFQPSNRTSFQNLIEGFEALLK

By Ki is commonly meant a dissociation constant, usually derived from enzyme kinetics or from competition with a known ligand. `CC(C)CS(=O)(=O)NCc1nc2cnc3[nH]ccc3c2n1C1CCN(CCC#N)CC1` [Example 506, 2-Methyl-propane-1-sulfonic acid {1-[1-(2-cyano-ethyl)-piperidin-4-yl]-1,6-dihydro-1,3,5,6-tetraaza-as-indacen-2-ylmethyl}-amide]: the Ki on JAK3 worked out at 74 nM; on JAK1 it was 5.75 nM; at JAK2, 53.7 nM; on TYK2 it was 179 nM.

Turning to `N#Cc1cccc(CN2CCC(n3cnc4cnc5[nH]ccc5c43)CC2)c1` [Example 49, 3-[4-(6H-1,3,5,6-Tetraaza-as-indacen-1-yl)-piperidin-1-ylmethyl]benzonitrile], the Ki at JAK3 was determined as 26.5 nM; on JAK1, 0.3 nM; on JAK2 it was 0.98 nM; at TYK2, 35.7 nM.

On to `Cc1nc2cnc3[nH]ccc3c2n1[C@H]1CC[C@H](N2CCC(O)C2)CC1` (mixture of isomers) [Example 597, Racemic trans 1-[4-(2-Methyl-6H-1,2,3,5,6-tetraaza-as-indacen-1-yl)-cyclohexyl]-pyrrolidin-3-ol], for which the Ki on JAK3 worked out at 823 nM; on JAK1 it was 30.8 nM; at JAK2, 126 nM; on TYK2, 497 nM.

`C[C@H](O)c1nc2cnc3[nH]ccc3c2n1[C@@H]1CCCN(C(=O)CC(F)(F)F)C1` [Example 782, 3,3,3-Trifluoro-1-{(R)-3-[2-((S)-1-hydroxy-ethyl)-6H-1,3,5,6-tetraaza-as-indacen-1-yl]-piperidin-1-yl}-propan-1-one]: the Ki turned out to be 2970 nM at JAK3, 286 nM on JAK1, 1470 nM on JAK2 and 3040 nM on TYK2.

Regarding `CCn1nccc1CN1CCC(n2c([C@@H](C)O)nc3cnc4[nH]ccc4c32)CC1` [Example 820, (R)-1-{1-[1-(2-Ethyl-2H-pyrazol-3-ylmethyl)-piperidin-4-yl]-1,6-dihydro-1,3,5,6-tetraaza-as-indacen-2-yl}-ethanol], the Ki on JAK3 came out at 35.8 nM; at JAK1, 12 nM; on JAK2 it was 61 nM; on TYK2, 166 nM.

On to `CC(O)c1nc2cnc3[nH]ccc3c2n1C1CCN(CC(=O)N2CCCCC2)CC1` (racemic) [Example 529, 2-{4-[2-(1-Hydroxy-ethyl)-6H-1,3,5,6-tetraaza-as-indacen-1-yl]-piperidin-1-yl}-1-piperidin-1-yl-ethanone], for which the Ki on JAK3 is 561 nM; on JAK1 it was 19.6 nM; on JAK2, 284 nM; at TYK2, 2170 nM.

In the case of `c1cc2c(ncc3ncn([C@H]4CCCNC4)c32)[nH]1` [Example 364, (S)-1-Piperidin-3-yl-1,6-dihydro-1,3,5,6-tetraaza-as-indacene], the Ki at JAK3 was found to be 171 nM; at JAK1, 36.9 nM; at JAK2, 179 nM; on TYK2, 207 nM.

`N#CCCN1CCC(n2c(CNC(=O)c3ccccc3F)nc3cnc4[nH]ccc4c32)CC1` [Example 501, N-{1-[1-(2-Cyano-ethyl)-piperidin-4-yl]-1,6-dihydro-1,3,5,6-tetraaza-as-indacen-2-ylmethyl}-2-fluoro-benzamide]: the Ki on JAK3 is 12.2 nM; on JAK1, 3.93 nM; at JAK2, 12 nM; at TYK2 it was 56.4 nM.

Turning to `CC(=O)NCCc1nc2cnc3[nH]ccc3c2n1C1CCCCC1` [Example 677, N-[2-(1-Cyclohexyl-1,6-dihydro-1,2,3,5,6-tetraaza-as-indacen-2-yl)-ethyl]-acetamide], the Ki at JAK3 stood at 32.9 nM; at JAK1 it was 2.47 nM; at JAK2, 29.5 nM; on TYK2, 27.5 nM.

On to `N#CCC(=O)N1CC[C@@H](n2cnc3cnc4[nH]ccc4c32)C1` [Example 37, 3-Oxo-3-[(R)-3-(6H-1,3,5,6-tetraaza-as-indacen-1-yl)-pyrrolidin-1-yl]propionitrile], for which the Ki at JAK3 was determined as 144 nM; on JAK1 it was 11.3 nM; at JAK2 it was 44.2 nM; on TYK2, 198 nM.

Consider `CC(C)CN[C@H]1CC[C@H](n2cnc3cnc4[nH]ccc4c32)CC1` [Example 569, trans Isobutyl-[4-(6H-1,3,5,6-tetraaza-as-indacen-1-yl)-cyclohexyl]-amine], for which the Ki on JAK3 was 448 nM; at JAK1, 12.7 nM; at JAK2, 95.8 nM; on TYK2 it was 254 nM.

Regarding `C[C@@H](O)c1nc2cnc3[nH]ccc3c2n1[C@@H]1CCCN(C(=O)CC2CC2)C1` [Example 791, 2-Cyclopropyl-1-{(R)-3-[2-((R)-1-hydroxy-ethyl)-6H-1,3,5,6-tetraaza-as-indacen-1-yl]-piperidin-1-yl}-ethanone], the Ki on JAK3 was determined as 822 nM; at JAK1, 82.4 nM; at JAK2, 1080 nM; on TYK2 it was 814 nM.

Regarding `CC(C)(C)OC(=O)N[C@H]1CC[C@H](n2nnc3cnc4[nH]ccc4c32)CC1` [Example 276, [4-(6H-1,2,3,5,6-Pentaaza-as-indacen-1-yl)-cyclohexyl]-carbamic acid tert-butyl ester], the Ki was 378 nM on JAK3, 12.1 nM at JAK1, 32.3 nM at JAK2 and 460 nM at TYK2.

Regarding `O=S(=O)(c1ccccc1)N1CCC[C@@H](n2cnc3cnc4[nH]ccc4c32)C1` [Example 359, 1-((R)-1-Benzenesulfonyl-piperidin-3-yl)-1,6-dihydro-1,3,5,6-tetraaza-as-indacene], the inhibition constant Ki on JAK3 stood at 67.1 nM; at JAK1 it was 12.4 nM; at JAK2, 10.5 nM; at TYK2, 52.8 nM.

On to `Cc1nc2cnc3[nH]ccc3c2n1C1CCC(NC(=O)CC(F)(F)F)C1` (racemic) [Example 730, 3,3,3-Trifluoro-N-[3-(2-methyl-6H-1,3,5,6-tetraaza-as-indacen-1-yl)-cyclopentyl]-propionamide], for which the Ki at JAK3 was 1.87 nM; at JAK1 it was 1.49 nM; at JAK2 it was 7.24 nM; on TYK2, 21.1 nM.

Regarding `Cc1nc(CN2CCC(n3c([C@@H](C)O)nc4cnc5[nH]ccc5c43)CC2)c(C)o1` [Example 903, (R)-1-{1-[1-(2,5-Dimethyl-oxazol-4-ylmethyl)-piperidin-4-yl]-1,6-dihydro-1,3,5,6-tetraaza-as-indacen-2-yl}-ethanol], the Ki at JAK3 came out at 88.9 nM; at JAK1 it was 33.9 nM; at JAK2, 323 nM; at TYK2, 542 nM.

On to `O=C(Cc1ccccc1)N1CCC(n2cnc3cnc4[nH]ccc4c32)CC1` [Example 7, 2-Phenyl-1-[4-(6H-1,2,3,5,6-tetraaza-as-indacen-1-yl)-piperidin-1-yl]-ethanone], for which the Ki amounted to 283 nM at JAK3, 8.6 nM on JAK1, 13.3 nM at JAK2 and 64.6 nM at TYK2.

`Cc1nc2cnc3[nH]ccc3c2n1C1CC1` [Example 425, 1-Cyclopropyl-2-methyl-1,6-dihydro-1,3,5,6-tetraaza-as-indacene]: the Ki at JAK3 worked out at 177 nM; at JAK1 it was 83.4 nM; at JAK2, 97.8 nM; on TYK2, 399 nM.

Take `C[C@@H](O)c1nc2cnc3[nH]ccc3c2n1[C@H]1CC[C@H](N2CC[C@@H](C#N)C2)CC1` [Example 610, Trans (R)-1-{4-[2-((R)-1-hydroxy-ethyl)-6H-1,2,3,5,6-tetraaza-as-indacen-1-yl]-cyclohexyl}-pyrrolidine-3-carbonitrile]: the Ki on JAK3 turned out to be 139 nM; at JAK1, 7.25 nM; at JAK2, 35.5 nM; at TYK2 it was 17.7 nM.

Regarding `CNC(=O)N(C)[C@H]1CC[C@H](n2c(C)nc3cnc4[nH]ccc4c32)CC1` [Example 608, Trans 1,3-dimethyl-1-[4-(2-methyl-6H-1,2,3,5,6-tetraaza-as-indacen-1-yl)-cyclohexyl]-urea], the Ki came out at 158 nM at JAK3, 17.8 nM on JAK1, 12.4 nM on JAK2 and 182 nM on TYK2.

`CN1CCC[C@H]1CN1CCC(n2cnc3cnc4[nH]ccc4c32)CC1` [Example 177, 1-[1-((S)-1-Methyl-pyrrolidin-2-ylmethyl)-piperidin-4-yl]-1,6-dihydro-1,2,3,5,6-tetraaza-as-indacene]: the Ki was 1400 nM on JAK3, 42 nM at JAK1, 144 nM on JAK2 and 519 nM at TYK2.

Consider `O=S(=O)(C1CC1)N1CCC[C@@H](n2cnc3cnc4[nH]ccc4c32)C1` [Example 70, (R)-1-(1-Cyclopropanesulfonyl-piperidin-3-yl]-1,6-dihydro-1,3,5,6-tetraaza-as-indacene], for which the Ki at JAK3 amounted to 38.6 nM; on JAK1, 12.5 nM; at JAK2, 15.1 nM; on TYK2 it was 68.9 nM.

Turning to `CC(O)c1nc2cnc3[nH]ccc3c2n1C1CCN(CCC(F)(F)F)CC1` (stereo not drawn) [Example 759, 1-{1-[1-(3,3,3-Trifluoro-propyl)-piperidin-4-yl]-1,6-dihydro-1,3,5,6-tetraaza-as-indacen-2-yl}-ethanol], the Ki on JAK3 was found to be 37.2 nM; on JAK1, 7.13 nM; at JAK2 it was 118 nM; on TYK2 it was 109 nM.

As for `CC(C)Cc1nc2cnc3[nH]ccc3c2n1C1CCN(Cc2ccccc2)CC1` [Example 224, 1-(1-Benzyl-piperidin-4-yl)-2-isobutyl-1,6-dihydro-1,3,5,6-tetraaza-as-indacene], the Ki was found to be 20.6 nM at JAK3, 14.2 nM on JAK1, 59.2 nM on JAK2 and 1980 nM on TYK2.
